Experimental data taken from patent US8318758B2, “5-fluoro-2-oxopyrimidine-1(2H)-carboxylate derivatives” (Dow AgroSciences, LLC, priority 2009, dated 2012).
Read-outs that look alike come from different tables or passages of the source.

Experiments:
[1] = system: Mycosphaerella graminicola; anamorph: Septoria tritici; Bayer code SEPTTR; test: Fungicidal activity: leaf blotch of wheat, one-day protectant and three-day curative tests on wheat plants; format: in vivo, Septoria tritici on wheat plants (variety Yuma); conditions: Zymoseptoria tritici
Method: Evaluation of Fungicidal Activity: Leaf Blotch of Wheat (Mycosphaerella graminicola; anamorph: Septoria tritici; Bayer code […]) Wheat plants (variety Yuma) were grown from seed in a greenhouse in 50% mineral soil/50% soil-less Metro mix until the first leaf was fully emerged, with 7-10 seedlings per pot. These plants were inoculated with an aqueous spore suspension of Septoria tritici either prior to or after fungicide treatments. After inoculation the plants were kept in 100% relative humidity (one day in a dark dew chamber followed by two to three days in a lighted dew chamber) to permit spores to germinate and infect the leaf. The plants were then transferred to a greenhouse for disease to develop. The following table presents the activity of typical compounds of the present disclosure when evaluated in these experiments. The effectiveness of the test compounds in controlling disease was determined by assessing the severity of disease on treated plants, then converting the severity to percent control based on the level of disease on untreated, inoculated plants.

[2] = 24 h, One-Day Protectant (1DP), 100 ppm, wheat plants, percent control relative to untreated, inoculated plants, read-out: SEPTTR 100 PPM 1DP (% disease control rating)
[3] = 72 h, Three-Day Curative (3DC), 100 ppm, wheat plants, percent control relative to untreated, inoculated plants, read-out: SEPTTR 100 PPM 3DC (% disease control rating)
[4] = 24 h, read-out: SEPTTR 100 PPM 1DP (% disease control rating)
[5] = 72 h, read-out: SEPTTR 100 PPM 3DC (% disease control rating)

SMILES | pest or weed control at 100 ppm [1, 2] [%] | pest or weed control at 100 ppm [1, 3] [%] | melting point [°C] | pest or weed control at 100 ppm [1, 4] [%] | pest or weed control at 100 ppm [1, 5] [%]
Nc1nc(=O)n(C(=O)OCCOCc2ccccc2)cc1F [Compound 12] | 76 to 100 | 76 to 100 | 142.8 to 145.1 |  | 
CN(C)/C=N/c1nc(=O)n(C(=O)OCc2ccccc2)cc1F [Compound 23] |  |  | 123.2 to 124.3 |  | 
C=CCOC(=O)n1cc(F)c(N)nc1=O [Compound 17] | 76 to 100 | 76 to 100 | 258 to 260.4 |  | 
Nc1nc(=O)n(C(=O)Oc2ccccc2)cc1F [Compound 5, phenyl 4-amino-5-fluoro-2-oxopyrimidine-1(2H)-carboxylate] |  |  | 175 to 180 | 76 to 100 | 76 to 100
CN(C)/C=N/c1nc(=O)n(C(=O)OCC(C)(C)C)cc1F [Compound 1, 4-(dimethylamino-methyleneamino)-5-fluoro-2-oxo-2H-pyrimidine-1-carboxylic acid 2,2-dimethyl-propyl ester] |  |  | 162 to 164 | 76 to 100 | 76 to 100
Nc1nc(=O)n(C(=O)OCC(Cl)(Cl)Cl)cc1F [Compound 16] | 76 to 100 | 76 to 100 | 219.3 to 221.1 |  | 
CCOC(=O)n1cc(F)c(N)nc1=O [Compound 3, ethyl 4-amino-5-fluoro-2-oxopyrimidine-1(2H)-carboxylate] |  |  | 190 to 193 | 76 to 100 | 76 to 100
Nc1nc(=O)n(C(=O)Oc2ccc(Cl)cc2)cc1F [Compound 7] | 76 to 100 | 76 to 100 | 143.2 to 146.3 |  | 
Nc1nc(=O)n(C(=O)Oc2ccc3ccccc3c2)cc1F [Compound 18] | 76 to 100 | 76 to 100 | 165.8 to 168.1 |  | 
Nc1nc(=O)n(C(=O)OCCCCl)cc1F [Compound 14] | 76 to 100 | 76 to 100 | 145.1 to 146.3 |  | 
Cc1ccc(OC(=O)n2cc(F)c(N)nc2=O)cc1 [Compound 10] | 76 to 100 | 76 to 100 | 235 to 237 |  | 
Nc1nc(=O)n(C(=S)Oc2ccccc2)cc1F [Compound 21, O-phenyl 4-amino-5-fluoro-2-oxopyrimidine-1(2H)-carbothioate] | 76 to 100 | 76 to 100 | 113 to 116 |  | 
Nc1nc(=O)n(C(=O)OC2CCCC2)cc1F [Compound 20] | 76 to 100 | 76 to 100 | 139.8 to 140.6 |  | 
Nc1nc(=O)n(C(=O)Oc2ccccc2Cl)cc1F [Compound 8] | 76 to 100 | 76 to 100 | 222.5 to 224.6 |  | 
COc1ccc(OC(=O)n2cc(F)c(N)nc2=O)cc1 [Compound 6] | 76 to 100 | 76 to 100 | 172.4 to 173.6 |  | 
CCCCCOC(=O)n1cc(F)c(N)nc1=O [Compound 19] | 76 to 100 | 76 to 100 | 125.9 to 128.2 |  | 
Nc1nc(=O)n(C(=O)OCc2ccccc2Cl)cc1F [Compound 11] | 76 to 100 | 76 to 100 | 145.8 to 146.8 |  | 
CC(C)OC(=O)n1cc(F)c(N)nc1=O [Compound 4, isopropyl 4-amino-5-fluoro-2-oxopyrimidine-1(2H)-carboxylate] |  |  | 217 to 219 | 76 to 100 | 76 to 100
Nc1nc(=O)n(C(=O)Oc2ccc(F)cc2)cc1F [Compound 9] | 76 to 100 | 76 to 100 | 156.8 to 158.2 |  | 
COC(=O)n1cc(F)c(N)nc1=O [Compound 13] | 76 to 100 | 76 to 100 | 240 to 243 |  | 
Nc1nc(=O)n(C(=O)OCc2ccccc2)cc1F [Compound 2, benzyl 4-amino-5-fluoro-2-oxopyrimidine-1(2H)-carboxylate] |  |  | 212 to 215 | 76 to 100 | 76 to 100
CN(C)/C=N/c1nc(=O)n(C(=O)OC2CCCC2)cc1F [Compound 26] |  |  | 103.5 to 104.6 |  | 
COCCOC(=O)n1cc(F)c(N)nc1=O [Compound 15] | 76 to 100 | 76 to 100 | 94.2 to 96.3 |  | 
Cc1ccc(OC(=O)n2cc(F)c(/N=C/N(C)C)nc2=O)cc1 [Compound 24] |  |  | 179 to 181.2 |  | 
